system: HBV rcDNA in HepDE19 cells; experiment: HepDE19 assay with bDNA quantitation of HBV rcDNA; format: cell-based, hepatitis B virus (HBV); settings: Hepatitis B virus, HepDE19, 168 h, inhibition of rcDNA formation in HepDE19 cells (HepG2 derived), Tet-free medium, 7 day incubation, Quantigene 2.0 bDNA readout, top concentration 25 μM; read-out: DE-19bDNA EC50
Summary of the method: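 Cytotoxicity run on replicate plates (5,000 cells/well, 4 days, ATP luminescence, CC50), while antiviral plates (50,000 cells/well) received compound for 7 days after tetracycline withdrawal to induce HBV replication. Top dose 25 μM, 8 points, 0.5% DMSO; rcDNA by branched-DNA assay, % inhibition fitted (4-parameter) for EC50 and EC90.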

Row | Compound | EC50 [µM]
1 | CN(C(=O)Nc1ccc(F)c(Cl)c1)C1COCc2[nH]c(=O)c3cc(Cl)ccc3c21 (stereo not shown) [Compound 55, 3-(3-Chloro-4-fluorophenyl)-1-(8-chloro-6-oxo-1,4,5,6-tetrahydro-2H-pyrano[3,4-c]isoquinolin-1-yl)-1-methylurea] | 0.05
2 | CN(C(=O)Nc1ccc(F)c(Cl)c1)[C@@H]1COCc2nc(OCCN)c3cc(F)c(F)cc3c21 [Compound 258, (S)-1-(6-(2-Aminoethoxy)-8,9-difluoro-1,4-dihydro-2H-pyrano[3,4-c]isoquinolin-1-yl)-3-(3-chloro-4-fluorophenyl)-1-methylurea] | 0.065
3 | CN(C(=O)Nc1ccc(Cl)c(C#N)c1)[C@@H]1COCc2[nH]c(=O)c3cc(F)c(F)cc3c21 [Compound 142, (S)-3-(4-Chloro-3-cyanophenyl)-1-(8,9-difluoro-6-oxo-1,4,5,6-tetrahydro-2H-pyrano[3,4-c]isoquinolin-1-yl)-1-methylurea] | 0.03
4 | CN(C(=O)Nc1ccc(F)c(C#N)c1)C1COCc2[nH]c(=O)c3ccc(F)cc3c21 (stereo not shown) [Compound 77, 3-(3-Cyano-4-fluorophenyl)-1-(9-fluoro-6-oxo-1,4,5,6-tetrahydro-2H-pyrano[3,4-c]isoquinolin-1-yl)-1-methylurea] | 0.05
5 | CN(C(=O)Nc1cc(F)cc(Cl)c1)C1COCc2[nH]c(=O)c3ccccc3c21 (stereo not shown) [Compound 29, 3-(3-Chloro-5-fluorophenyl)-1-methyl-1-(6-oxo-1,4,5,6-tetrahydro-2H-pyrano[3,4-c]isoquinolin-1-yl)urea] | 0.12
6 | CN(C(=O)Nc1ccc(Cl)c(F)c1)[C@@H]1COCc2[nH]c(=O)c3cc(F)c(F)cc3c21 [Compound 141, (S)-3-(4-Chloro-3-fluorophenyl)-1-(8,9-difluoro-6-oxo-1,4,5,6-tetrahydro-2H-pyrano[3,4-c]isoquinolin-1-yl)-1-methylurea] | 0.02
7 | CN(C(=O)Nc1ccc(F)c(Cl)c1)[C@@H]1COCc2c1c1cc(F)c(F)cc1c(=O)n2C [Compound 243, (S)-3-(3-Chloro-4-fluorophenyl)-1-(8,9-difluoro-5-methyl-6-oxo-1,4,5,6-tetrahydro-2H-pyrano[3,4-c]isoquinolin-1-yl)-1-methylurea] | 0.02
8 | CN(C(=O)Nc1ccc(F)c(Cl)c1)C1CCCc2[nH]c(=O)c3c(c21)COCC3 (single isomer, unassigned) [Compound 79, 3-(3-Chloro-4-fluorophenyl)-1-methyl-1-(5-oxo-3,4,5,6,7,8,9,10-octahydro-1H-pyrano[4,3-c]quinolin-10-yl)urea] | ≥ 25
9 | CC(C)CN(C(=O)Nc1ccc(F)c(Cl)c1)C1CCCc2[nH]c(=O)c3cc(F)ccc3c21 (stereo not shown) [Compound 10, 3-(3-Chloro-4-fluorophenyl)-1-(8-fluoro-6-oxo-1,2,3,4,5,6-hexahydrophenanthridin-1-yl)-1-isobutylurea] | 0.06
10 | CN(C(=O)Nc1ccc(F)c(Cl)c1)C1CS(=O)(=O)Cc2[nH]c(=O)c3cc(F)ccc3c21 (single isomer, unassigned) [Compound 197, 3-(3-Chloro-4-fluorophenyl)-1-(8-fluoro-3,3-dioxido-6-oxo-1,4,5,6-tetrahydro-2H-thiopyrano[3,4-c]isoquinolin-1-yl)-1-methylurea] | 2.3
11 | CC(=O)N1Cc2[nH]c(=O)c3cc(F)ccc3c2C(N(C)C(=O)Nc2ccc(F)c(Cl)c2)C1 (single isomer, unassigned) [Compound 157, 1-(3-Acetyl-8-fluoro-6-oxo-1,2,3,4,5,6-hexahydrobenzo[c][1,7]naphthyridin-1-yl)-3-(3-chloro-4-fluorophenyl)-1-methylurea] | 1.2
12 | CC(C)CN(C(=O)Nc1ccc(F)c(Cl)c1)C1CCCc2[nH]c(=O)cc(C(F)(F)F)c21 (stereo not shown) [Compound 1, 3-(3-Chloro-4-fluorophenyl)-1-isobutyl-1-(2-oxo-4-(trifluoromethyl)-1,2,5,6,7,8-hexahydroquinolin-5-yl)urea] | 0.52

same assay, conditions: Hepatitis B virus, HepDE19, 168 h, read-out: DE-19bDNA EC50 (uM), inhibition of rcDNA formation in HepDE19 cells (HepG2 derived), Tet-free medium, 7 day incubation, Quantigene 2.0 bDNA readout, top concentration 25 μM

Row | Compound | EC50 [µM]
13 | CN(C(=O)N1Cc2ccc(C(F)(F)F)cc2C1)C1CNCc2[nH]c(=O)c3cc(F)c(F)cc3c21 (single isomer, unassigned) [Compound 231, N-(8,9-Difluoro-6-oxo-1,2,3,4,5,6-hexahydrobenzo[c][1,7]naphthyridin-1-yl)-N-methyl-5-(trifluoromethyl)isoindoline-2-carboxamide] | ≥ 25

same assay, conditions: inhibition of rcDNA formation in HepDE19 cells (HepG2 derived), Tet-free medium, 7 day incubation, Quantigene 2.0 bDNA readout, top concentration 25 μM; read-out: DE-19bDNA EC50

Row | Compound | EC50 [µM]
14 | CN(C(=O)Nc1ccc(F)c(Cl)c1)C1C[S+]([O-])Cc2[nH]c(=O)c3cc(F)ccc3c21 (single isomer, unassigned) [Compound 196, 3-(3-Chloro-4-fluorophenyl)-1-(8-fluoro-3-oxido-6-oxo-1,4,5,6-tetrahydro-2H-thiopyrano[3,4-c]isoquinolin-1-yl)-1-methylurea] | 22
15 | O=C(Nc1ccc(F)c(Cl)c1)N(CCCO)C1COCc2[nH]c(=O)c3cc(F)ccc3c21 (single isomer, unassigned) [Compound 109, 3-(3-Chloro-4-fluorophenyl)-1-(8-fluoro-6-oxo-1,4,5,6-tetrahydro-2H-pyrano[3,4-c]isoquinolin-1-yl)-1-(3-hydroxypropyl)urea] | 0.62
16 | CC(=O)N1Cc2[nH]c(=O)c3cc(F)ccc3c2C(N(C)C(=O)Nc2ccc(F)c(C#N)c2)C1 (single isomer, unassigned) [Compound 166, 1-(3-Acetyl-8-fluoro-6-oxo-1,2,3,4,5,6-hexahydrobenzo[c][1,7]naphthyridin-1-yl)-3-(3-cyano-4-fluorophenyl)-1-methylurea] | 11
17 | CN(C(=O)Nc1ccc(F)c(Cl)c1)C1C[S+]([O-])Cc2[nH]c(=O)c3cc(F)ccc3c21 (single isomer, unassigned) [Compound 195] | 0.9
18 | CN(C(=O)Nc1ccc(F)c(C#N)c1)C1C[S+]([O-])Cc2[nH]c(=O)c3cc(F)c(F)cc3c21 (single isomer, unassigned) [Compound 212, 3-(3-Cyano-4-fluorophenyl)-1-(8,9-difluoro-3-oxido-6-oxo-1,4,5,6-tetrahydro-2H-thiopyrano[3,4-c]isoquinolin-1-yl)-1-methylurea] | ≥ 25
19 | CN(C(=O)N1Cc2ccc(F)cc2C1)C1CNCc2[nH]c(=O)c3cc(F)c(F)cc3c21 (single isomer, unassigned) [Compound 224, N-(8,9-Difluoro-6-oxo-1,2,3,4,5,6-hexahydrobenzo[c][1,7]naphthyridin-1-yl)-5-fluoro-N-methylisoindoline-2-carboxamide] | ≥ 25
20 | CN(C(=O)Nc1ccc(F)c(F)c1)C1CCCc2[nH]c(=O)c3c(c21)CCOC3 (single isomer, unassigned) [Compound 62, 3-(3,4-Difluorophenyl)-1-methyl-1-(5-oxo-1,4,5,6,7,8,9,10-octahydro-2H-pyrano[3,4-c]quinolin-10-yl)urea] | 1.3
21 | CN(C(=O)Nc1ccc(F)c(Cl)c1)C1CSCc2[nH]c(=O)c3cc(F)c(F)cc3c21 (single isomer, unassigned) [Compound 187, 3-(3-Chloro-4-fluorophenyl)-1-(8,9-difluoro-6-oxo-1,4,5,6-tetrahydro-2H-thiopyrano[3,4-c]isoquinolin-1-yl)-1-methylurea] | 0.9
22 | CC(C)(O)CN(C(=O)Nc1ccc(F)c(Cl)c1)C1COCc2[nH]c(=O)c3cc(F)ccc3c21 (single isomer, unassigned) [Compound 112, 3-(3-Chloro-4-fluorophenyl)-1-(8-fluoro-6-oxo-1,4,5,6-tetrahydro-2H-pyrano[3,4-c]isoquinolin-1-yl)-1-(2-hydroxy-2-methylpropyl)urea] | 1.9
23 | CN(C(=O)Nc1ccc(F)cc1)C1COCc2[nH]c(=O)c3cc(F)c(F)cc3c21 (single isomer, unassigned) [Compound 103, 1-(8,9-Difluoro-6-oxo-1,4,5,6-tetrahydro-2H-pyrano[3,4-c]isoquinolin-1-yl)-3-(4-fluorophenyl)-1-methylurea] | 5.3
24 | CCN(C(=O)Nc1ccc(F)c(F)c1)C1CCCc2[nH]c(=O)c3c(c21)CCCC3 (single isomer, unassigned) [Compound 50, 3-(3,4-Difluorophenyl)-1-ethyl-1-(6-oxo-1,2,3,4,5,6,7,8,9,10-decahydrophenanthridin-1-yl)urea] | 6.8
25 | CN(C(=O)Nc1ccc(F)c(F)c1)C1CCCc2[nH]c(=O)c3c(c21)CCCC3 (single isomer, unassigned) [Compound 48, 3-(3,4-Difluorophenyl)-1-methyl-1-(6-oxo-1,2,3,4,5,6,7,8,9,10-decahydrophenanthridin-1-yl)urea] | 3.1
26 | CN(C(=O)Nc1ccc(F)c(C(F)F)c1)C1COCc2nc(NCCN)c3cc(F)c(F)cc3c21 (single isomer, unassigned) [Compound 247, 1-(6-((2-Aminoethyl)amino)-8,9-difluoro-1,4-dihydro-2H-pyrano[3,4-c]isoquinolin-1-yl)-3-(3-(difluoromethyl)-4-fluorophenyl)-1-methylurea] | 0.08
27 | CN(C(=O)Nc1ccc(F)c(Cl)c1)C1COCc2[nH]c(=O)c3c(c21)CCOC3 (single isomer, unassigned) [Compound 92, 3-(3-Chloro-4-fluorophenyl)-1-methyl-1-(6-oxo-1,2,4,5,6,7,9,10-octahydrodipyrano[3,4-b:4′,3′-d]pyridin-1-yl)urea] | 0.15
28 | CN(C(=O)Nc1ccc(F)c(C(F)F)c1)C1COCc2nc(NCCN)c3cc(F)c(F)cc3c21 (single isomer, unassigned) [Compound 248, 1-(6-((2-Aminoethyl)amino)-8,9-difluoro-1,4-dihydro-2H-pyrano[3,4-c]isoquinolin-1-yl)-3-(3-(difluoromethyl)-4-fluorophenyl)-1-methylurea] | 3.2
